Measurements from patent US20210369710A1, “MODULATORS OF MYC FAMILY PROTO-ONCOGENE PROTEIN” (Nalo Therapeutics, priority 2019, published 2021).

Tests used:
MycN Protein = molecular target: T1, MycN Protein (Homo sapiens, UniProt P04198); assay: Degradation of MycN protein, Western blot band density in cells; assay type: cell-based; conditions: HL-60 or SKNBE2 cells; 6 uL of compound (1 mM) added to 3 mL cells; 6 hours; Western blot band density (ImageJ)
T1 construct: endogenous in cells; host or cells: HL-60 or SKNBE2
T1 sequence (P04198 1-464): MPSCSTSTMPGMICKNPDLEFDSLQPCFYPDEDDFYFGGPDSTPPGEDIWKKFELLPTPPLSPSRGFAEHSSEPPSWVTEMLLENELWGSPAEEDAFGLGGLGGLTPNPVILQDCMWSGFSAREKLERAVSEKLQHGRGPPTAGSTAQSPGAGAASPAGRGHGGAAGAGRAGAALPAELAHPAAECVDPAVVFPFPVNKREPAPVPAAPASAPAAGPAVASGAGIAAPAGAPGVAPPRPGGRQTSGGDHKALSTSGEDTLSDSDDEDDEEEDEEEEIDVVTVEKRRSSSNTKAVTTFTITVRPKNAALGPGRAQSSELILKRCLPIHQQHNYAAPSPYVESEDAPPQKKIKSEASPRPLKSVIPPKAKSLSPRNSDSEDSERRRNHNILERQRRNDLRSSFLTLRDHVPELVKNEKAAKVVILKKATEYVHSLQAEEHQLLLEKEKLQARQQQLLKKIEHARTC
Method in brief: (§1)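 HL-60 leukemia or SKNBE2 neuroblastoma cells (3×10^6 per well, passages below 40) were exposed for 6 h to compound added from a 1 mM stock. RIPA lysates (25-30 ug protein) were run on SDS-PAGE and immunoblotted for c-Myc or MycN. Band density was quantified from the western images.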

MycC Protein = molecular target: T2, MycC Protein (Homo sapiens, UniProt P01106); assay: Degradation of MycC protein, Western blot band density in cells; assay type: cell-based; conditions: HL-60 or SKNBE2 cells; 6 uL of compound (1 mM) added to 3 mL cells; 6 hours; Western blot band density (ImageJ)
T2 construct: endogenous in cells; host or cells: HL-60 or SKNBE2
T2 sequence (P01106 whole entry): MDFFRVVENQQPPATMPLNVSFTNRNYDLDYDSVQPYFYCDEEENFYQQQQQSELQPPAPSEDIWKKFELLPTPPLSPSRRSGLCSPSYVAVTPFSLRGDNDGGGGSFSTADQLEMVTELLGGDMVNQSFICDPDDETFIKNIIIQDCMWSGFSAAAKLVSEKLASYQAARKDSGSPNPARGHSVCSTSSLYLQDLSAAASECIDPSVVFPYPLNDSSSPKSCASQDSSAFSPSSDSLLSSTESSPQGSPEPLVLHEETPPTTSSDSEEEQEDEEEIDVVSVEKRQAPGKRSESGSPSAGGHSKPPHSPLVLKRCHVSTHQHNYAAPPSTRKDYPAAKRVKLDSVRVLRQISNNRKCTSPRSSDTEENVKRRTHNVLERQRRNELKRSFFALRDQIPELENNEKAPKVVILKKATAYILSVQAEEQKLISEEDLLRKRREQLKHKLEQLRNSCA
Method in brief: as §1

SMILES	Dmax at 2 µM (MycN Protein) [%]	Dmax at 2 µM (MycC Protein) [%]	% Degradation of MycN (MycN Protein)	% Degradation of MycC (MycC Protein)
CN(c1nccc(Nc2cc(C3CCC(F)(F)C3)[nH]n2)n1)[C@H]1CC[C@H](NC(=O)NC2Cc3ccc(C#N)cc3C2)CC1 (stereo partly drawn) [Compound 149, 1-(5-cyano-2,3-dihydro-1H-inden-2-yl)-3-((1R,4R)-4-((4-((5-(3,3-difluorocyclopentyl)-1H-pyrazol-3-yl)amino)pyrimidin-2-yl)(methyl)amino)cyclohexyl)urea]	50 to 79	< 20	–	–
CN(c1nccc(Nc2cc(C3CC3)[nH]n2)n1)[C@H]1CC[C@H](NC(=O)NC2Cc3ccccc3C2)CC1 [Compound 150, 1-((1R,4R)-4-((4-((5-cyclopropyl-1H-pyrazol-3-yl)amino)pyrimidin-2-yl)(methyl)amino)cyclohexyl)-3-(2,3-dihydro-1H-inden-2-yl)urea]	80 to 100	80 to 100	–	–

The next lines start with the values.

Dmax at 2 µM (MycN Protein) [%]	Dmax at 2 µM (MycC Protein) [%]	% Degradation of MycN (MycN Protein)	% Degradation of MycC (MycC Protein)	SMILES
80 to 100	50 to 79	–	–	CN(c1nccc(Nc2cc(C3CC4(CC4)C3)[nH]n2)n1)[C@H]1CC[C@H](NC(=O)NC2Cc3ccc(C#N)cc3C2)CC1 (stereo partly drawn) [Compound 148, 1-(5-cyano-2,3-dihydro-1H-inden-2-yl)-3-((1R,4R)-4-(methyl(4-((5-(spiro[2.3]hexan-5-yl)-1H-pyrazol-3-yl)amino)pyrimidin-2-yl)amino)cyclohexyl)urea]
–	–	**** (****: degradation 80-100%)	**** (****: degradation 80-100%)	COCCN(c1nccc(Nc2cc(C3CC3)[nH]n2)n1)C1CCC(NC(=O)NC2Cc3ccc(C#N)cc3C2)CC1 [Compound 152, 1-(5-cyano-2,3-dihydro-1H-inden-2-yl)-3-((1R,4R)-4-((4-((5-cyclopropyl-1H-pyrazol-3-yl)amino)pyrimidin-2-yl)(2-methoxyethyl)amino)cyclohexyl)urea]
20 to 49	50 to 79	–	–	CN(C(=O)N[C@H]1CC[C@H](N(C)c2nccc(Nc3cc(C4CCCC4)[nH]n3)n2)CC1)C1Cc2ccc(C#N)cc2C1 (stereo partly drawn) [Compound 153, 1-(5-cyano-2,3-dihydro-1H-inden-2-yl)-3-((1R,4R)-4-((4-((5-cyclopentyl-1H-pyrazol-3-yl)amino)pyrimidin-2-yl)(methyl)amino)cyclohexyl)-1-methylurea]
